According to PMC12022973, “Proteomimetic Strategy for the Modulation of Intrinsically Disordered Protein MYC” (Journal of the American Chemical Society, 2025):
Starred links: 1 amine or outer side, 2 acyl side, 3 side chain; linkers in the order of their positions; H or OH if unused. Positions of bridges follow the written chain, without caps; N, C: chain ends. Residues, ends and D or L forms follow the SMILES beside them. Chains are numbered I, II in the order given. X1 = c1cc(C[*:1])ccc1COCc1ccc(C[*:2])cc1

Experiments:
[1] = biological target: T1, recombinant human MYC^353–437 protein (His6-MYC^353–437) (Homo sapiens, UniProt P01106); experiment: Fluorescence polarization direct binding of fluorescein-labeled CHDs to His6-MYC353-437; conditions: FP direct binding; 15 nM FITC-labeled peptide; His6-MYC serial dilutions from 10 μM; 1X PBS, 1 mM DTT, 5% glycerol, 0.1% pluronic acid, pH 6.7; 25 °C; triplicate; MYC aggregates above 5 μM; read-out: Binding Affinity MYC^353-436, Kd
T1 construct: recombinant human MYC^353–437 protein; made in house; host or cells: E. coli BL21(DE3), pET151-D-TOPO-cMyc vector
Method: pET151-D-TOPO-cMyc vector was kindly provided by Dr. Edward Prochownik from the
Department of Pediatrics at UPMC Children’s Hospital of Pittsburgh. Expression and purification
of Myc353-437 were performed using an established protocol with minor modifications.7 BL21(DE3)
cells were used to express recombinant Myc353-437 protein. Bacteria were grown at 37 °C to OD600
of 0.8 followed by 1 mM IPTG induction and 16-18h growth at RT. Cells were harvested via
centrifugation at 4,000 rpm at 4 °C and the pellet was resuspended in 10 mL of lysis buffer (8 M
urea, 100 mM NaH2PO4, 10 mM Tris HCl, pH 8) supplemented with protease inhibitor cocktail
(PierceTM Protease Inhibitor Tablets) and benzonase nuclease. Suspensions were sonicated on
ice using a Branson Cell Disruptor 200 and centrifuged at 12,000 rpm for 45 min at 4 °C. Clarified
lysate was applied to a column containing pre-equilibrated HisPur Ni-NTA Superflow Agarose
(ThermoFisher Scientific) for overnight at 4 °C. The resin beads were washed with 10 mL of
additional lysis buffer followed by three washes of 10 mL wash buffer (8 M urea, 100 mM
NaH2PO4, 10 mM Tris HCl, 10 mM imidazole). The target protein was eluted with elution buffer (8
M urea, 100 mM NaH2PO4, 10 mM Tris HCl, 250 mM imidazole) and buffer exchanged into 150
mM NaCl, 50 mM Tris HCl, 5% glycerol, pH 6.7. Protein was concentrated by ultra-filtration (3000
MWCO; Amicon Ultra-15 Centrifugal Filter units from EMD Millipore) followed by TEV cleavage
(1:100 w/w of protease to target protein) in 150 mM NaCl, 50 mM Tris HCl, 5% glycerol, pH 6.7
for 24 hrs at 4 °C. The cleaved protein is further purified by reverse-phase HPLC (gradient 10-60
acetonitrile/water with 0.1% TFA over 35 min) to remove TEV protease and un-cleaved protein.
Purified Myc353-437 was lyophilized and stored at -20 °C. Myc353-437 identity was characterized by
(§1) Fluorescence Polarization Binding Assay
(§2) The relative affinities of FITC-CHDMax-1 to His6-Myc353-436 and full-length His6-Max were
(§3) determined using fluorescence polarization-based direct binding assay. The polarization
(§4) experiments were performed using a DTX 880 Multimode Detector (Beckman) at 25 °C with
(§5) excitation and emission wavelengths of 485 and 525 nm, respectively. Each polarization
(§6) experiment was performed in a 96-well round bottom plate (Greiner) in assay buffer: 1X PBS, 1
(§7) mM DTT, 5% glycerol, 0.1% pluronic acid, pH 6.7. The binding affinity (KD) values reported for
(§8) each peptide are from experiments performed in triplicate. Raw values were fit to a sigmoidal
(§9) dose-response nonlinear regression model in GraphPad Prism 6.0.
(§10) All binding experiments with FITC-labeled peptides to His6-Myc353-436 or His6-Max were performed
(§11) under the same conditions. Briefly, serial dilutions of His6-Myc353-436 and His6-Max were made
(§12) from 10 μM into 15 nM of FITC-labeled peptide in assay buffer. KD was determined using the
(§13) KD1 = (RT*(1-FSB) + LST*FSB2)/FSB-LST
(§14) RT = Total concentration of His6-Myc353-436 or His6-Max
(§15) LST = Total concentration of FITC-labeled peptide
(§16) FSB = Fraction of bound FITC-labeled peptide

[2] = biological target: T2, full-length His6-Max (MAX^1-160) (Homo sapiens, UniProt P61244); experiment: Fluorescence polarization direct binding to His6-MAX; conditions: FP direct binding; 15 nM FITC-labeled peptide; His6-MAX from 10 μM; 1X PBS, 1 mM DTT, 5% glycerol, 0.1% pluronic acid, pH 6.7; 25 °C
T2 construct: N.B. (MAX^1-160)
Method: as §1, §2, §3, §4, §5, §6, §7, §8, §9, §10, §11, §12, §13, §14, §15, §16

T2 sequence (P61244 whole entry): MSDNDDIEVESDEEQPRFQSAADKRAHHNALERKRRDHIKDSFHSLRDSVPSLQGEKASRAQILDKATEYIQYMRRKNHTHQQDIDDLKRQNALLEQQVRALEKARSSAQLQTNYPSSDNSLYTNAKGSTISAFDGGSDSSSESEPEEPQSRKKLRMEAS
T1 sequence (P01106 368-452): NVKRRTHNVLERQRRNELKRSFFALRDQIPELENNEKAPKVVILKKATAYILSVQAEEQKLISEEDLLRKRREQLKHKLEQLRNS

CC[C@H](C)[C@H](NC(=O)[C@H](CCCCN)NC(=O)[C@H](CCC(=O)O)NC(=O)[C@H](CCCNC(=N)N)NC(=O)[C@H](CC(C)C)NC(C)=O)C(=O)N[C@@H](C)C(=O)N[C@H](C(=O)N[C@@H](CC(C)C)C(=O)N[C@@H](CCC(N)=O)C(=O)N[C@@H](Cc1c[nH]c2ccccc12)C(=O)N[C@@H](CSCc1ccc(COCc2ccc(CSC[C@H](NC(=O)[C@H](CC(C)C)NC(=O)[C@H](CCC(=O)O)NC(=O)[C@H](CCC(=O)O)NC(=O)[C@@H](NC(=O)[C@H](CCC(=O)O)NC(=O)[C@H](Cc3c[nH]c4ccccc34)NC(=O)[C@H](CCC(N)=O)NC(=O)[C@H](Cc3c[nH]cn3)NC(=O)[C@@H](NC(=O)[C@H](CCC(=O)O)NC(=O)[C@H](CC(N)=O)NC(=O)[C@H](CCCCN)NC(=O)[C@H](CCCNC(=N)N)NC(=O)[C@H](CCCNC(=N)N)NC(=O)[C@H](CC(C)C)NC(C)=O)[C@@H](C)O)[C@@H](C)CC)C(N)=O)cc2)cc1)C(=O)N[C@H](C(=O)N[C@@H](CCC(=O)O)C(=O)N[C@@H](CCC(=O)O)C(=O)N[C@@H](CC(C)C)C(=O)N[C@@H](CCCNC(=N)N)C(=O)N[C@@H](CCCCN)C(N)=O)[C@@H](C)CC)[C@@H](C)O [CHD^Max-1] (I: Ac-LREKIATLQWCIEELRK-NH2 / II: Ac-LRRKNETHQWEIEELC-NH2; linker I:11-II:16 via X1)
Kd [1]: 350 ± 17 nM
CHD^Max-1 Binding Affinity, Kd (MAX^1-160) [2]: N.B.
